The target in assay [1] is E3 ubiquitin-protein ligase Mdm2/Protein Mdm4 (Homo sapiens, UniProt O15151+Q00987). Kind of assay: Mdm2-MdmX interaction inhibitors, dose response, luminescence detection (AID 504593). Type of assay: functional.
Assay [2] is described as follows: Luminescence Cell-Based Dose Confirmation HTS to Identify Inhibitors of Platelet Dense Granule Release. [Related pubchem assays: 1663 (Primary HTS), 1678 (Summary of Project)]. It counts as functional.
The target in assay [3] is T1, E3 ubiquitin-protein ligase XIAP (Homo sapiens, UniProt P98170). In words: XIAP antagonists, biochemical, IAP family, fluorescence polarization (AID 1018). It counts as functional.
T1 sequence (P98170 whole entry): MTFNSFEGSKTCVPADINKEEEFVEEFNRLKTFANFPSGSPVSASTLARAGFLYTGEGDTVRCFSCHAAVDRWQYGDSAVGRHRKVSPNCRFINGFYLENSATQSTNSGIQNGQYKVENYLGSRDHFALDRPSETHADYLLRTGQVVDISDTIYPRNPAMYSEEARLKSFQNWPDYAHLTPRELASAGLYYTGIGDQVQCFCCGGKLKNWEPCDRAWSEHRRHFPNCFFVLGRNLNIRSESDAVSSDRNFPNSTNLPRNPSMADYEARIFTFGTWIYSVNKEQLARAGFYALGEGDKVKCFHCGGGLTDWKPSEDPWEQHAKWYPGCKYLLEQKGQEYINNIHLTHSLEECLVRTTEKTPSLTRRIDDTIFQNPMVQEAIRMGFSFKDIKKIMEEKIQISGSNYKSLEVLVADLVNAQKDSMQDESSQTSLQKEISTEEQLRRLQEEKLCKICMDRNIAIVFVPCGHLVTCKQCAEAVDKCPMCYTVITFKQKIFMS
The target of assay [4] is T1, E3 ubiquitin-protein ligase XIAP. Kind of assay: Counter Screen using XIAP-Bir3 for Chemical Antagonists of Bir1/2 domains of IAP-family anti-apoptotic proteins. [Related pubchem assays (depositor defined):AID1018, AID1449, AID1514, AID1638, AID1749, AID1750, AID488957, AID488963].
The target of assay [5] is Luciferin 4-monooxygenase (Photinus pyralis, UniProt P08659). In words: firefly luciferase enzyme inhibitors, dose response, biochemical, luminescence (AID 1891).
Sequence of Luciferin 4-monooxygenase (P08659 whole entry): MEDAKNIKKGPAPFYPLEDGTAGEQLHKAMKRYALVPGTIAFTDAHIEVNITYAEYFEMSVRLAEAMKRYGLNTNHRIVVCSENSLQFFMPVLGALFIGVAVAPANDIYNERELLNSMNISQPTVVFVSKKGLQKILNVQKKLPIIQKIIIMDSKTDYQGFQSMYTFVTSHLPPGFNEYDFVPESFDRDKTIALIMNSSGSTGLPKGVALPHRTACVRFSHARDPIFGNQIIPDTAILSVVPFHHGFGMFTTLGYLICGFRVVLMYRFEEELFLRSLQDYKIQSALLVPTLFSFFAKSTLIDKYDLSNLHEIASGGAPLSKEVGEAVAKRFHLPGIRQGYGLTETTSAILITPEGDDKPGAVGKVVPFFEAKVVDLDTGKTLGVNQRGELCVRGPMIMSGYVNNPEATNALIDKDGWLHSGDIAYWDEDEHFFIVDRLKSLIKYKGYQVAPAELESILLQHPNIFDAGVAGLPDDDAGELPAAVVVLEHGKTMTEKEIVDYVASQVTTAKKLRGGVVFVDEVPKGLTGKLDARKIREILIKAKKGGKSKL
The target in the next assay is Troponin, cardiac muscle (Homo sapiens, UniProt P19429+P45379+P63316). In words: Fluorescence-based biochemical high throughput dose response assay for activators of the calcium sensitivity of cardiac Regulated Thin Filaments (RTF). [Related pubchem assays (depositor defined):AID493008, AID493018, AID504382, AID504383]. It counts as protein-complex assay.
The target in assay [6] is Induced myeloid leukemia cell differentiation protein Mcl-1 (Homo sapiens, UniProt Q07820). Type of assay: functional.
Sequence of Induced myeloid leukemia cell differentiation protein Mcl-1 (Q07820 whole entry): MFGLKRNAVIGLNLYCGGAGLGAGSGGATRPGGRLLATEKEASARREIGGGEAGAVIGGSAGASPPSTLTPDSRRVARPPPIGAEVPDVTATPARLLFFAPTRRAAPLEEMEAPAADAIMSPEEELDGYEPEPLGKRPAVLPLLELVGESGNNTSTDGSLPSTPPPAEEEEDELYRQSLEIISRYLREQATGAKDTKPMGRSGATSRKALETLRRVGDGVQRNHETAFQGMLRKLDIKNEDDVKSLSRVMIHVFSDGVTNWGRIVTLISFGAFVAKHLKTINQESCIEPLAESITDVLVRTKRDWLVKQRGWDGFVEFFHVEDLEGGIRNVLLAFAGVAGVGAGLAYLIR
Assay [7] deals with T2, Heat shock factor protein 1 (Mus musculus, UniProt P38532).
T2 sequence (P38532 whole entry): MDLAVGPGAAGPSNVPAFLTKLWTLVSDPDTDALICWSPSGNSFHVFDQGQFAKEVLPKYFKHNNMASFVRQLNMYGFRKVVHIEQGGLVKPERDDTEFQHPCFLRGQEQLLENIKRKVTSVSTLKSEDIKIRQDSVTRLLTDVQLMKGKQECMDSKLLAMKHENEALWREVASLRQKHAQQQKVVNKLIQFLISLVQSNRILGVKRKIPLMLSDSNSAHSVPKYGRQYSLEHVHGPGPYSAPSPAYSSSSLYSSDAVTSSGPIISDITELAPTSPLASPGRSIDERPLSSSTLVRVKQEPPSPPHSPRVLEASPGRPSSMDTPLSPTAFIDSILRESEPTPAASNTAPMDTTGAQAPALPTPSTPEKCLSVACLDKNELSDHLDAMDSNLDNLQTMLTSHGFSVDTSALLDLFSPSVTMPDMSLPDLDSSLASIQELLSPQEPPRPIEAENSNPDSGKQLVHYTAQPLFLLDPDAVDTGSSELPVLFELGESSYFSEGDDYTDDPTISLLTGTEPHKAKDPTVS
Kind of assay: HSF1 potentiators in luciferase reporter cells, confirmation, cell-based, NIH3T3, luminescence, dose retest (AID 435004).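 Note: stress induced by proteasome inhibitor MG132 added 30 min after compound; luciferase reporter driven by HSF1 response element in NIH3T3 cells; actives raise luminescence as potentiators of the MG132 stress response.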 It counts as functional.

The next assay deals with NADPH oxidase 4 (Homo sapiens, UniProt Q9NPH5). Kind of assay: PubChem AID 435013.
Sequence of NADPH oxidase 4 (Q9NPH5 whole entry): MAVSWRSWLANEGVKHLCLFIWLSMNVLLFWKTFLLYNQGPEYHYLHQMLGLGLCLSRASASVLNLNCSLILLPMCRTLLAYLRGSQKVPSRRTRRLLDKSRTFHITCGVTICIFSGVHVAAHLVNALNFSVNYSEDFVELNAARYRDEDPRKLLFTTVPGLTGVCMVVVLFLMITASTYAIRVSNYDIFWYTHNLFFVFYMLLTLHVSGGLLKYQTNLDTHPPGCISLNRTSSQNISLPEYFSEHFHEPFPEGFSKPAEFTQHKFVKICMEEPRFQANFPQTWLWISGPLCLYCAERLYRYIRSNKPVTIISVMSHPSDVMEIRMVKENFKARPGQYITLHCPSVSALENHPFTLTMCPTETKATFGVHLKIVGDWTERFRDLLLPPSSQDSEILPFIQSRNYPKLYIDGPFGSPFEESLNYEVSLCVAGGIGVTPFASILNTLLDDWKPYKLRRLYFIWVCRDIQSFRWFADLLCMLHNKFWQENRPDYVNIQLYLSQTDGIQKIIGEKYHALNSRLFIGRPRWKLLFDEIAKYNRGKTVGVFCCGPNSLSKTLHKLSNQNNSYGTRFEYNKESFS
Another assay concerns the target NADPH oxidase 2 (Homo sapiens, UniProt P04839). Kind of assay: PubChem AID 435013.
For the next assay, the target named is NADPH oxidase 1 (Homo sapiens, UniProt Q9Y5S8). In words: Late stage results from the probe development effort to identify inhibitors of NOX1: HEK/293 IC50. [Related pubchem assays: 1796 (Summary AID (NOX1)), 2752 (Primary screen (NOX1 inhibitors, synthesized analogs set 2)), 2664 (Primary screen (NOX1 inhibitors, synthesized analogs)), 1792 (Primary Screen (NOX1)), 2545 (Confirmation screen (NOX1 …. It counts as functional.
Sequence of NADPH oxidase 1 (Q9Y5S8 whole entry): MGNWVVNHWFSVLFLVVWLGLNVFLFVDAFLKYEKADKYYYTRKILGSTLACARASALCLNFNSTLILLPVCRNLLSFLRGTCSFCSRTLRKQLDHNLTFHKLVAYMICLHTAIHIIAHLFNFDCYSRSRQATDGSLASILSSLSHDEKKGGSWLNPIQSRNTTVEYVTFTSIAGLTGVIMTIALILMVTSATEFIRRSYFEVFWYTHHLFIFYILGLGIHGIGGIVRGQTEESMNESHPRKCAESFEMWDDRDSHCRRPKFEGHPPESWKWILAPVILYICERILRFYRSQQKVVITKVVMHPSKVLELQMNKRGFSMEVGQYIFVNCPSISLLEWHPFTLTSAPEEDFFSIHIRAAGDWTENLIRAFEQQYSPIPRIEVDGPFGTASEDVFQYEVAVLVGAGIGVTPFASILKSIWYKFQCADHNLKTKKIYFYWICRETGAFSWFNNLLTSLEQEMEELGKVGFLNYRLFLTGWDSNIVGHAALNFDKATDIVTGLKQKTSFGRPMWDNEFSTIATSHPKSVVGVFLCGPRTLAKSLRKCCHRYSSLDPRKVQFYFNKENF

Another assay has as its target NADPH oxidase 3 (Homo sapiens, UniProt Q9HBY0). Kind of assay: PubChem AID 435013.
Assay [8] can be described thus: decrease of PhoP-driven GFP reporter signal, S. Typhimurium, dose response, PhoP regulon inhibitor project, purified and synthesized compounds, set 2 (AID 2831). Type of assay: functional.

The results in this text go back to ChEMBL document CHEMBL1201862, “PubChem BioAssay data set” (2004).

The source made the active and inactive calls. Unless noted, no cut-off for these calls is given here.

Sequence of NADPH oxidase 3 (Q9HBY0 whole entry): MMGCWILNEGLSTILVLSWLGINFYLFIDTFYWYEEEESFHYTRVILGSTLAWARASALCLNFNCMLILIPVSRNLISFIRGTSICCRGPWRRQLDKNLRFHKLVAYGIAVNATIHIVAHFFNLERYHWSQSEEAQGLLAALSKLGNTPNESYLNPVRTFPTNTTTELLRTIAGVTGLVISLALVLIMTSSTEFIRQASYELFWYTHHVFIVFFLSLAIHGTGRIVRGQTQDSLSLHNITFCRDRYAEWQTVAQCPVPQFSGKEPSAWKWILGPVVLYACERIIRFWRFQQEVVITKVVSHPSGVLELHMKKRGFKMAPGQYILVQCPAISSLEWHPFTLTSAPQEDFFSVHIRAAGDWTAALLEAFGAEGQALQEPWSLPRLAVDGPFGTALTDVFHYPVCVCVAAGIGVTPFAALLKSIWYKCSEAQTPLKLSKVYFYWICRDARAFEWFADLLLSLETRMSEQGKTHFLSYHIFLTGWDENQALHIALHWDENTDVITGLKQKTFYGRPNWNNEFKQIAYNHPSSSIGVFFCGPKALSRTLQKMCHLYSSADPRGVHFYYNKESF
Sequence of E3 ubiquitin-protein ligase Mdm2/Protein Mdm4 (Q00987 whole entry): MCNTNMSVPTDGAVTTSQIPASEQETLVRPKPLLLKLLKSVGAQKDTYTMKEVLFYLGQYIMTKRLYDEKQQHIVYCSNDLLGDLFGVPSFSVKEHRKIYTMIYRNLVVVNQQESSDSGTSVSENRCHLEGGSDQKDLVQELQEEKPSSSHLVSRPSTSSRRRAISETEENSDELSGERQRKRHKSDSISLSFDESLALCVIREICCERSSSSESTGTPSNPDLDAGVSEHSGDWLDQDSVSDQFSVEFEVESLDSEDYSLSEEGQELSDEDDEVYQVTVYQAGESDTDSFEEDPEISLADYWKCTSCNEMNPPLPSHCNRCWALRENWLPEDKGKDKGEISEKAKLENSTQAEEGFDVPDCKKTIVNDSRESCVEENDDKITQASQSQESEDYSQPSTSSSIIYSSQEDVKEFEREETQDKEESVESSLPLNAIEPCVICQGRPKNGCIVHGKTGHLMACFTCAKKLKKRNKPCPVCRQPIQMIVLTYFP
Sequence of E3 ubiquitin-protein ligase Mdm2/Protein Mdm4 (O15151 whole entry): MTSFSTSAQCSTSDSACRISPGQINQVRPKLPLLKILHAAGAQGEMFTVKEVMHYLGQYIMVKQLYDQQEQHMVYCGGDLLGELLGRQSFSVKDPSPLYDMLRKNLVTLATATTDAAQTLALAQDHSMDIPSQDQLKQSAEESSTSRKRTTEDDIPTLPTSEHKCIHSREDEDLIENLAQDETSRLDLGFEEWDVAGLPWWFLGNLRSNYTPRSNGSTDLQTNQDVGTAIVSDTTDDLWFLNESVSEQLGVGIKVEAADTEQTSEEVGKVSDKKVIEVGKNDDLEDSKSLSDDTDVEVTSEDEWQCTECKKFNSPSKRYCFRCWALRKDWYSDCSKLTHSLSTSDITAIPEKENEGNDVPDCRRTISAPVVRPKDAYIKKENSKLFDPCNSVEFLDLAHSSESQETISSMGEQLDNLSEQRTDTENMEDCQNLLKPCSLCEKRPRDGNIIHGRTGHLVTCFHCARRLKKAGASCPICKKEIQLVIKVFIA
Sequence of NADPH oxidase 2 (P04839 whole entry): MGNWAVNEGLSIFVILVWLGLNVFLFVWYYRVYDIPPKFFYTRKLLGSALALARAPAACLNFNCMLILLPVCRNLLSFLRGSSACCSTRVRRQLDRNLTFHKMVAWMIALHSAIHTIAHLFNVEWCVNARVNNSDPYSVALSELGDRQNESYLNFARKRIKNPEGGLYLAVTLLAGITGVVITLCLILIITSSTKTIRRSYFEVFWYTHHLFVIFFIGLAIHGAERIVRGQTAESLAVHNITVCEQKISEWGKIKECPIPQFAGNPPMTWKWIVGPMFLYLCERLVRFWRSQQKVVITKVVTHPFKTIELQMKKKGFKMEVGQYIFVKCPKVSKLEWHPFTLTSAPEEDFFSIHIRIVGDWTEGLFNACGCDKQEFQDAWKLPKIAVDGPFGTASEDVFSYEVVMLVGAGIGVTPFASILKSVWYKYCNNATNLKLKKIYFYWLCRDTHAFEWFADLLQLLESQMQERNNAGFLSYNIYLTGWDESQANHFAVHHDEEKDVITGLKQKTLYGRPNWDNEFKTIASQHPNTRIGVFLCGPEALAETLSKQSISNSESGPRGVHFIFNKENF

Broadly, the IC50 is the concentration that gives 50% inhibition. For `COc1cc(-c2nc(-c3ccc(NC(=O)c4ccc5c(c4)OCO5)cc3)no2)cc(OC)c1OC`, in assay [1], the IC50 is 3.91 µM (active).
Broadly, the EC50 is the concentration at which the effect is half-maximal. `Cc1ccnc(N2C(=O)c3ccccc3C2O)c1` (stereo not drawn): the concentration for a half-maximal effect (EC50) in [2] is 6.49 µM (active); in assay [5], 27.7 µM (active). Also, the IC50 was > 100 µM (not active) in [3] and > 100 µM (inactive) in assay [4].
`COc1ccc(N/C=C2\C(=O)CCc3c2oc2cc(Cl)c(O)c(Cl)c32)cc1`: the concentration giving a half-maximal response (EC50) is 3.93 µM (active) at Troponin, cardiac muscle and > 260 µM (inactive) in assay [7]. The concentration for half-maximal inhibition (IC50) in [6] is 4.32 µM (active).
`FC(F)(F)c1ccc2c(c1)Nc1ccccc1S2`: the IC50 at NADPH oxidase 4 was 5 µM (active); at NADPH oxidase 2, 9 µM (active); on NADPH oxidase 1 it was 1 µM (active); at NADPH oxidase 3, 7.5 µM (active).
With `OC1=C2C(=Nc3ccccc3SC2c2ccco2)c2ccccc21` (stereo not drawn), the half-inhibitory concentration (IC50) in assay [8] is > 125 µM (active).
